Assay results reported in paper PMC9692753, “Pentapeptide-Zinc Chelate from Sweet Almond Expeller Amandin Hydrolysates: Structural and Physicochemical Characteristics, Stability and Zinc Transport Ability In Vitro” (Molecules, 2022).
Marks after values point to notes of the source that are not given here. Where no end group is shown, it is not given here.

How the values were obtained:
[1] = Zinc-chelating ability assay (PAR colorimetric method); type: binding; settings: sample in 0.1 mol/L HEPES-KOH buffer, DTT 8 mmol/L, ZnSO4 250 μmol/L, 37 °C 10 min, absorbance at 500 nm, n ≥ 3
Experimental: Zinc-chelating ability was determined using the PAR colorimetric method. […] The mixed solution was stirred (180 r/min) at 37 °C for 10 min, and then 250 μL PAR (0.2 mmol/L, pH 7.5) was added. After incubation at 37 °C for 3 min, the absorbance at 500 nm was read. […] Zinc-chelating capacity was calculated as follows:(1) Zinc chelating ability mg/g=Cc−Cs× 65.38×10^−3×V /M where, Cc (μmol/L) is the zinc concentration in the reaction solution without samples; Cs is the zinc concentration in reaction solution after the chelating reaction (μmol/L); V is the volume of the reaction solution; M is the mass of the samples (g); and 65.38 is the mol mass of zinc (g/mol).

[2] = Thermal stability of zinc solubility (boiling water); settings: chelate 1 mg/mL in ultrapure water, zinc sulphate and zinc gluconate 100 μg/mL; boiling water 10, 20, 40, 60 min; zinc in supernatant / total zinc; PAR method; n ≥ 3; Figure 7
Experimental: SAEAH peptide-zinc chelate solution (1 mg/mL, dispersed in ultrapure water) was incubated in boiling water for 10, 20, 40 and 60 min [37]. After centrifugation at 6000× g for 15 min, the supernatant was collected for zinc content determination.

Caco-2 cells = test: Cell viability of Caco-2 cells (MTT method); type: cell-based
Experimental: In addition, effects of ZnSO4/zinc gluconate and peptide-zinc chelate on cell viability were measured using the MTT method [38].

Row | Compound | Zinc chelating capacity [1] | Zinc solubility stability against incubation at 100 °C (result in words) [2] | Cytotoxicity toward Caco-2 cells (Caco-2 cells)
1 | O=C(O)CN(CCN(CC(=O)O)CC(=O)O)CC(=O)O [EDTA] | 57.17 ± 2.63 ^d mg/g | – | –
2 | O=C([O-])[C@H](O)[C@@H](O)[C@H](O)[C@H](O)CO.O=C([O-])[C@H](O)[C@@H](O)[C@H](O)[C@H](O)CO.[Zn+2] [zinc gluconate] | – | not reduced significantly | no significant (p > 0.05) cytotoxicity
3 | VDLVAEVPRGL [peptide identified in sweet almond expeller amandin hydrolysates] | 4.33 ± 0.33 ^e mg/g | – | –
